Reference: PubChem BioAssay AID602187 (Broad Institute, 2012)
Calls of active or inactive are those of the source.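 Rule for the calls: active = compounds lowering yeast growth whose fitted half-maximal concentration is at most twice the top tested dose; inconclusive = flat partial growth drop between 30 and 70 percent, or poor fit; inactive = the rest.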

Experiments:
[1] = test system: S. cerevisiae growth in glucose medium, OD600, 48 h; assay: S. cerevisiae growth inhibition on glucose, dose response, glucose medium, OD600, dry powder (AID 602187)
[2] = as above; settings: S. cerevisiae growth in glucose medium, OD600, 48 h

SMILES: CCCC(=O)NC(c1cccs1)c1cc(Cl)c2cccnc2c1O (centres undefined)
- AC50 [1]: 5.88 µM

SMILES: O=C(Nc1nc(-c2ccccc2)cs1)c1ccc(Br)s1
- activity change, negative = inhibition ([2]; at 19.5 µM (top of the series)): 25.4% (inactive)

SMILES: C/C(=N\NC(=O)c1cc2ccccc2cc1O)c1ccccn1
- activity change, negative = inhibition ([2]; at 19.5 µM (top of the series)): -15% (inactive)

SMILES: O=C(Nc1nc(-c2ccccn2)cs1)c1ccc(Br)s1
- AC50 [1]: 0.737 µM

SMILES: O=C(Oc1c(Cl)cc(Cl)c2cccnc12)c1ccco1
- AC50 [1]: 0.346 µM

SMILES: Oc1c(CN2CCN(c3ccccc3)CC2)cc(Cl)c2cccnc12
- activity change, negative = inhibition ([2]; at 23.5 µM (top of the series)): 11.7% (inactive)

SMILES: Cc1cc(C)n(-c2nc3ccccc3c(=O)n2OCC#N)n1
- activity change, negative = inhibition ([2]; at 19.5 µM (top of the series)): -16.8% (inactive)

SMILES: O=C(Nc1nc(-c2ccccn2)cs1)c1ccccc1
- activity change, negative = inhibition ([2]; at 19.5 µM (top of the series)): -9.7% (inactive)

SMILES: O=C(Nc1nc(-c2ccc3c(c2)CCCC3)cs1)c1ccccc1
- activity change, negative = inhibition ([2]; at 19.5 µM (top of the series)): 34% (inactive)

SMILES: CN1CCN(C(c2ccc(C(F)(F)F)cc2)c2ccc3cccnc3c2O)CC1 (centres undefined)
- AC50 [1]: 3.32 µM

SMILES: O=C(Nc1nnc(-c2ccc3c(c2)CCCC3)o1)c1ccc(Cl)cc1Cl
- activity change, negative = inhibition ([2]; at 19.5 µM (top of the series)): -3.17% (inactive)

SMILES: COc1ccc(-c2nnc(NC(=O)c3ccc(S(=O)(=O)N4CCCc5ccccc54)cc3)o2)cc1
- activity change, negative = inhibition ([2]; at 19.5 µM (top of the series)): 19.9% (inactive)

SMILES: Cc1ccc(C(=O)Nc2nnc(-c3ccccc3)o2)cc1C
- activity change, negative = inhibition ([2]; at 19.5 µM (top of the series)): 28.3% (inactive)

SMILES: CCOC(=O)N1C(=O)C2(CCCCC2)N(c2ccc(C)cc2)C1=S
- activity change, negative = inhibition ([2]; at 19.5 µM (top of the series)): 13.1% (inactive)

SMILES: Cc1ccc(C(=O)Nc2nc(-c3ccccn3)cs2)cc1
- AC50 [1]: 6.06 µM

SMILES: Cc1ccc(-c2nc3c(Cl)cc(Cl)cc3c(=O)n2O)cc1
- AC50 [1]: 2.01 µM

SMILES: Oc1c(CN2CCc3ccccc3C2)cc(Cl)c2cccnc12
- AC50 [1]: 15.3 µM

SMILES: C=CCNC(=S)N/N=C(\C)c1ccccn1
- AC50 [1]: 6.93 µM

SMILES: O=C(NNC(=S)Nc1ccc(Cl)c(Cl)c1)c1ccccn1
- AC50 [1]: 22 µM

SMILES: NC(=O)c1cccc(C(=O)Nc2nc(-c3ccc4c(c3)CCCC4)cs2)c1
- activity change, negative = inhibition ([2]; at 19.5 µM (top of the series)): 9.9% (inactive)

SMILES: O=C(Nc1nc(-c2ccccn2)cs1)c1ccc(Cl)s1
- AC50 [1]: 1.75 µM

SMILES: O=C(Nc1nnc(-c2ccc3c(c2)CCCC3)o1)c1ccccc1
- activity change, negative = inhibition ([2]; at 19.5 µM (top of the series)): -13.1% (inactive)

SMILES: Oc1c(C(c2ccc(Cl)cc2)N2CCCC2)ccc2cccnc12 (centres undefined)
- activity change, negative = inhibition ([2]; at 19.5 µM (top of the series)): 7.98% (inactive)

SMILES: Oc1c(C(c2ccccc2Cl)N2CCCCC2)ccc2cccnc12 (centres undefined)
- AC50 [1]: 16.3 µM
